Results as given in ChEMBL document CHEMBL5518172, “Discovery of hydroxamate as a promising scaffold dually inhibiting metallo- and serine-β-lactamases” (Eur J Med Chem, 2024).
The source made the active and inactive calls. No cut-off for these calls is given here.

Key:
Escherichia coli [1] = assay: Antibacterial activity against Escherichia coli BL21 (DE3) harboring metallo-beta-lactamase IMP-1 assessed as inhibition of bacterial growth upto 512 microg/ml by microdilution checkerboard assay; assay type: functional, organism-based; details: dose <= 512.0 µg/ml
[2] = target: Metallo-beta-lactamase type 2 (Bacteria) (UniProt C7C422); assay: Inhibition of recombinant NDM-1 (unknown origin) expressed in Escherichia coli BL21 (DE3) cells assessed as maximal inhibition at 5 uM incubated for 5 hrs
Escherichia coli [3] = assay: Synergistic antibacterial activity against Escherichia coli BL21 (DE3) harboring NDM-1 assessed as fold decrease in meropenem MIC at 64 microg/ml measured after 16 hrs by CLSI protocol based broth microdilution method; assay type: functional; details: dose 64 µg/ml
[4] = target: Metallo-beta-lactamase type 2 (Bacteria) (UniProt C7C422); assay: Inhibition of recombinant NDM-1 (unknown origin) expressed in Escherichia coli BL21 (DE3) cells assessed as reduction in residual activity at 0.3 to 5 uM; details: dose 0.3-5 µM, time 20.0 hrs, TDE = time-dependent effect
Escherichia coli [5] = assay: Synergistic antibacterial activity against Escherichia coli clinical isolate 04 assessed as meropenem MIC at 64 microg/ml measured after 16 hrs by CLSI protocol based broth microdilution method (reference value: 256 microg/ml); assay type: functional; details: dose 64 µg/ml
Bacteria [6] = assay: Inhibition of recombinant IMP-1 (unknown origin) expressed in Escherichia coli BL21 (DE3) cells assessed as reduction in residual activity incubated for 20 hrs; details: dose 0.25-5 µM
[7] = Inhibition of recombinant metallo-beta-lactamase IMP-1 (unknown origin) expressed in Escherichia coli BL21 (DE3) cells using meropenem as substrate by spectrometric analysis; parameters: species or system Bacteria
Klebsiella pneumoniae = assay: Synergistic antibacterial activity against KPC and NDM-1 producing Klebsiella pneumoniae assessed as meropenem MIC at 64 microg/ml incubated for 16 hrs by CLSI protocol based broth microdilution method (reference value: 256 microg/ml); assay type: functional; details: dose 64 µg/ml
[8] = Cytotoxicity against mouse L929 cells assessed as cell viability upto 200 uM incubated for 48 hrs by CCK8 assay relative to control; assay type: toxicity, cell-based; details: read-out: Activity
Escherichia coli [9] = assay: Synergistic antibacterial activity against Escherichia coli harboring serine beta-lactamase OXA-48 infected in Kunming mouse model assessed as reduction in bacterial load in spleen at 20 mg/kg, ip co-administered with 1 mg/kg of meropenem; assay type: functional, organism-based
Escherichia coli [10] = assay: Synergistic antibacterial activity against Escherichia coli clinical isolate 10 assessed as meropenem MIC at 64 microg/ml measured after 16 hrs by CLSI protocol based broth microdilution method (reference value: 512 microg/ml); assay type: functional; details: dose 64 µg/ml
Escherichia coli [11] = assay: Synergistic antibacterial activity against Escherichia coli clinical isolate 10 assessed as fold decrease in meropenem MIC at 64 microg/ml measured after 16 hrs by CLSI protocol based broth microdilution method; assay type: functional; details: dose 64 µg/ml
Bacteria [12] = assay: Inhibition of recombinant serine beta lactamase KPC-2 (unknown origin) expressed in Escherichia coli BL21 (DE3) cells assessed as reduction in residual activity at 0.25 to 5 uM; details: dose 0.25-5 µM, time 360.0 min, TDE = time-dependent effect
Bacteria [13] = assay: Inhibition of recombinant metallo-beta-lactamase ImiS (unknown origin) expressed in Escherichia coli BL21 (DE3) cells using meropenem as substrate at 20 uM by spectrometric analysis relative to control
[14] = target: Metallo-beta-lactamase type 2 (Bacteria) (UniProt C7C422); assay: Inhibition of recombinant NDM-1 (unknown origin) expressed in Escherichia coli BL21 (DE3) cells using meropenem as substrate at 20 uM by spectrometric analysis relative to control
Escherichia coli [15] = assay: Antibacterial activity against Escherichia coli harboring NDM-1 infected in Kunming mouse model assessed as reduction in bacterial load in liver at 20 mg/kg, ip; assay type: functional, organism-based
Bacteria [16] = assay: Inhibition of recombinant metallo-beta-lactamase IMP-1 (unknown origin) expressed in Escherichia coli BL21 (DE3) cells using cefazolin as substrate assessed as residual activity at 20 uM relative to control
Bacteria [17] = assay: Inhibition of recombinant IMP-1 (unknown origin) expressed in Escherichia coli BL21 (DE3) cells assessed as reduction in residual activity at 0.25 to 5 uM; details: dose 0.25-5 µM, time 20.0 hrs, TDE = time-dependent effect
Escherichia coli [18] = assay: Synergistic antibacterial activity against Escherichia coli clinical isolate 24 assessed as meropenem MIC at 64 microg/ml measured after 16 hrs by CLSI protocol based broth microdilution method (reference value: 256 microg/ml); assay type: functional; details: dose 64 µg/ml
Escherichia coli [19] = assay: Synergistic antibacterial activity against Escherichia coli harboring NDM-1 infected in Kunming mouse model assessed as reduction in bacterial load in liver at 20 mg/kg, ip co-administered with 10 mg/kg of meropenem; assay type: functional, organism-based
Escherichia coli [20] = assay: Synergistic antibacterial activity against Escherichia coli BL21 (DE3) harboring serine beta lactamase KPC-2 assessed as reduction in meropenem MIC upto 256 microg/ml in presence of meropenem by microdilution checkerboard assay; assay type: functional, organism-based; details: dose <= 256.0 µg/ml
Escherichia coli [21] = assay: Synergistic antibacterial activity against Escherichia coli BL21 (DE3) harboring metallo-beta-lactamase IMP-1 assessed as meropenem MIC at 64 microg/ml measured after 16 hrs by CLSI protocol based broth microdilution method (reference value: 64 microg/ml); assay type: functional; details: dose 64 µg/ml
Escherichia coli [22] = assay: Synergistic antibacterial activity against Escherichia coli BL21 (DE3) harboring NDM-1 assessed as decrease in bacterial colony at 128 microg/ml incubated for 12 hrs in presence of meropenem by imaging analysis; assay type: functional, organism-based; details: dose 128.0 µg/ml
[23] = target: Metallo-beta-lactamase type 2 (Bacteria) (UniProt C7C422); assay: Inhibition of recombinant NDM-1 (unknown origin) expressed in Escherichia coli BL21 (DE3) cells assessed as reduction in residual activity incubated for 20 hrs; details: dose 0.3-5 µM
Bacteria [24] = assay: Binding affinity to recombinant metallo-beta-lactamase IMP-1 (unknown origin) expressed in Escherichia coli BL21 (DE3) cells assessed as thermal stabilization by measuring change in melting temperature at 50 uM incubated under 25 to 80 degreeC by SYPRO orange dye based thermal shift assay (reference value: 71.9 degreeC)
Bacteria [25] = assay: Inhibition of recombinant metallo-beta-lactamase IMP-1 (unknown origin) expressed in Escherichia coli BL21 (DE3) cells using cefazolin as substrate at 20 uM by spectrometric analysis relative to control
[26] = Inhibition of recombinant serine beta lactamase KPC-2 (unknown origin) expressed in Escherichia coli BL21 (DE3) cells using meropenem as substrate by spectrometric analysis; parameters: species or system Bacteria
Bacteria [27] = assay: Inhibition of recombinant serine beta lactamase KPC-2 (unknown origin) expressed in Escherichia coli BL21 (DE3) cells using meropenem as substrate at 20 uM by spectrometric analysis relative to control
Escherichia coli [28] = assay: Antibacterial activity against Escherichia coli BL21 (DE3) harboring serine beta lactamase KPC-2 assessed as inhibition of bacterial growth upto 512 microg/ml by microdilution checkerboard assay; assay type: functional, organism-based; details: dose <= 512.0 µg/ml
Escherichia coli [29] = assay: Synergistic antibacterial activity against Escherichia coli assessed as meropenem MIC at 64 microg/ml measured after 16 hrs by CLSI protocol based broth microdilution method (reference value: 64 microg/ml); assay type: functional; details: dose 64 µg/ml
Escherichia coli [30] = assay: Synergistic antibacterial activity against Escherichia coli clinical isolate 06 assessed as meropenem MIC at 64 microg/ml measured after 16 hrs by CLSI protocol based broth microdilution method (reference value: 128 microg/ml); assay type: functional; details: dose 64 µg/ml
Bacteria [31] = assay: Inhibition of recombinant serine beta lactamase OXA-48 (unknown origin) expressed in Escherichia coli BL21 (DE3) cells using cefazolin as substrate assessed as residual activity at 20 uM relative to control

Metallo-beta-lactamase type 2 (Bacteria), sequence (C7C422 whole entry): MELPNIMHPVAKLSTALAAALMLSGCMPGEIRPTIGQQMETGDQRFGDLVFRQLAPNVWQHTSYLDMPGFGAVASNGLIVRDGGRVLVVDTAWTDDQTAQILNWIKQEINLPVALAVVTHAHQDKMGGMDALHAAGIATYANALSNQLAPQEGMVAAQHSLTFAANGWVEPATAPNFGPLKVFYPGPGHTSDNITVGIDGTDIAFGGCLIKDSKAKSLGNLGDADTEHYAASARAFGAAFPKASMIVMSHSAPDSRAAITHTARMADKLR

O=C(CCCc1ccccc1)NOC(=O)OCc1ccccc1
Activity (Escherichia coli [1]): inactive
inhibition [2]: Active
fold change (FC) (Escherichia coli [3]): 8
inhibition [4]: Tde
MIC (Escherichia coli [5]): 128 µg/mL
inhibition (Bacteria [6]): Dose-Dependent Effect
IC50 [7]: 1320 nM
MIC (Klebsiella pneumoniae): 256 µg/mL
viability at 48 h, up to 200 µM [8]: > 80%
Activity (Escherichia coli [9]): Active
MIC (Escherichia coli [10]): 64 µg/mL
fold change (FC) (Escherichia coli [11]): 2
inhibition (Bacteria [12]): Tde
inhibition (Bacteria [13]): < 42%
inhibition [14]: > 90%
Activity (Escherichia coli [15]): inactive
Activity (Bacteria [16]): < 10%
inhibition (Bacteria [17]): Tde
MIC (Escherichia coli [18]): 128 µg/mL
Activity (Escherichia coli [19]): Active
Activity (Escherichia coli [20]): Active
MIC (Escherichia coli [21]): 16 µg/mL
Activity (Escherichia coli [22]): Active
inhibition [23]: Dose-Dependent Effect
Tm (Bacteria [24]): 74.3 °C
inhibition (Bacteria [25]): > 90%
IC50 [26]: 570 nM
inhibition (Bacteria [27]): > 90%
Activity (Escherichia coli [28]): inactive
MIC (Escherichia coli [29]): 64 µg/mL
MIC (Escherichia coli [30]): 64 µg/mL
Activity (Bacteria [31]): < 10%
